Read-outs that look alike come from different tables or passages of the source.

For data set [1] the following is noted: for Absorbance: 400 nm; for Cilastatin content: HPLC. As to the method: Then, the glass vial was sealed and heated at 80° C. for 4 hours (to obtain a nitrogen-purged, heated sample). The aqueous solution before heating and the two samples prepared above were measured for absorbance, which served as an index for the degree of coloration, and also analyzed by HPLC to confirm the content of cilastatin.
The analysis conditions are detailed below.
Absorbance Measurement Conditions:
Equipment: Hitachi U-3900
Optical path length: 1 cm
HPLC Analysis Conditions:
Detector: Ultraviolet absorptiometer (measurement wavelength: 216 nm)
Column: 1.7 μm octadecylsilylated silica gel column (Acquity BEH C18, produced by Waters), 2.1 mm I.D., 50 mm long
Column temperature: 40° C.
Mobile phase: 25 mM phosphate buffer containing 9.5% acetonitrile (pH 4.25)
Amount of sample injected: 5 μL (prepared to 100 μg/mL)
Retention time: Cilastatin (about 2.6 min.)

Setting [2] is: N2-purged headspace, heated 80° C. for 4 hours.

For the molecule `CC1(C)C[C@@H]1C(=O)N/C(=C\CCCCSC[C@H](N)C(=O)O)C(=O)O` [cilastatin sodium, (Z)-7-[[(R)-2-amino-2-carboxyethyl]thio]-2-[[[(S)-2,2-dimethylcyclopropyl]carbonyl]amino]-2-heptenoic acid], the “appearance according to visual observation” value in data set [1] (200 mg/mL aqueous solution) is listed as “slightly yellow”. In addition, the “pH at the time of preparation” value in data set [1] (200 mg/mL aqueous solution) was 6.79. Further, the Absorbance came to 0.166 in data set [1] (setting [2]); 0.040 in data set [1] (before heating, 200 mg/mL aqueous solution, optical path 1 cm); 0.203 in data set [1] (heated sample: sealed glass vial, 80° C. for 4 hours). Besides, the Cilastatin content is 99.15% in data set [1] (setting [2]) and 98.99% in data set [1] (before heating). For the same molecule, the content of cilastatin result (after storage at 45° C.) is on record as “decreased slightly”. Besides, the color of solution result reads like this: (after storage at 45° C. for 23 days) “yellow”; (after storage at 45° C. for 65 days) “brown”; (at the time of preparation, deionized water) “slightly yellow”.

The record behind these values is patent US20230165792A1, “LIQUID FORMULATION AND PHARMACEUTICAL PRODUCT CONTAINING CILASTATIN” (Denka Company Limited, priority 2020, published 2023).
